Data published in the NIST ThermoML archive (doi:10.1016/j.jct.2015.04.006).
Numbers after ± are expanded uncertainties.

Columns and labels:
[1] = mn = molality of the nth substance listed, in mol/kg; settings: 100 kPa, Liquid, m2 = 0; for speed of sound: Frequency=3 MHz, Sing-around technique in a fixed-path interferometer; for mass density: Vibrating tube method
[2] = 100 kPa, Liquid; for speed of sound: Frequency=3 MHz, Sing-around technique in a fixed-path interferometer; for mass density: Vibrating tube method

SMILES	speed of sound ([1]; 298.15 K) [m/s]	mass density ([1]; 298.15 K) [kg/m3]	speed of sound ([1]; 303.15 K) [m/s]	mass density ([1]; 303.15 K) [kg/m3]	speed of sound ([1]; 308.15 K) [m/s]	mass density ([1]; 308.15 K) [kg/m3]	speed of sound ([1]; 313.15 K) [m/s]	mass density ([1]; 313.15 K) [kg/m3]	speed of sound ([1]; 318.15 K) [m/s]	mass density ([1]; 318.15 K) [kg/m3]	speed of sound ([2]; 298.15 K) [m/s]	mass density ([2]; 298.15 K) [kg/m3]	speed of sound ([2]; 303.15 K) [m/s]	mass density ([2]; 303.15 K) [kg/m3]	speed of sound ([2]; 308.15 K) [m/s]	mass density ([2]; 308.15 K) [kg/m3]	speed of sound ([2]; 313.15 K) [m/s]	mass density ([2]; 313.15 K) [kg/m3]	speed of sound ([2]; 318.15 K) [m/s]	mass density ([2]; 318.15 K) [kg/m3]
C[S+](C)[O-] [dimethyl sulfoxide] + CCCC[N+]1(C)CCOCC1.O=S(=O)([N-]S(=O)(=O)C(F)(F)F)C(F)(F)F	1484.6 ± 1.2	1095.28 ± 0.24	1467.7 ± 1.2	1090.26 ± 0.24	1450.8 ± 1.2	1085.24 ± 0.24	1434.1 ± 1.2	1080.22 ± 0.24	1417.5 ± 1.2	1075.21 ± 0.24	–	–	–	–	–	–	–	–	–	–
C[S+](C)[O-] [dimethyl sulfoxide] + CCCCCCCC[N+]1(C)CCOCC1.O=S(=O)([N-]S(=O)(=O)C(F)(F)F)C(F)(F)F	1484.6 ± 1.2	1095.28 ± 0.21	1467.7 ± 1.2	1090.26 ± 0.21	1450.8 ± 1.2	1085.24 ± 0.21	1434.1 ± 1.2	1080.22 ± 0.21	1417.5 ± 1.2	1075.21 ± 0.21	–	–	–	–	–	–	–	–	–	–
C[S+](C)[O-] [dimethyl sulfoxide]	–	–	–	–	–	–	–	–	–	–	1484.6 ± 1.2	1095.28 ± 0.21	1467.7 ± 1.2	1090.26 ± 0.26	1450.8 ± 1.2	1085.24 ± 0.24	1434.1 ± 1.2	1080.22 ± 0.24	1417.5 ± 1.2	1075.21 ± 0.26
C[S+](C)[O-] [dimethyl sulfoxide] + CC[N+]1(C)CCOCC1.O=S(=O)([N-]S(=O)(=O)C(F)(F)F)C(F)(F)F	1484.6 ± 1.2	1095.28 ± 0.26	1467.7 ± 1.2	1090.26 ± 0.26	1450.8 ± 1.2	1085.24 ± 0.26	1434.1 ± 1.2	1080.22 ± 0.26	1417.5 ± 1.2	1075.21 ± 0.26	–	–	–	–	–	–	–	–	–	–
